Among the data in PubChem BioAssay (NCI) are TGI and GI50 values, retold here.

Test systems include SF-268 CNS; SK-MEL-2 melanoma; NCI-H226 lung; SNB-75 CNS; CAKI-1 renal; SR leukemia; UACC-257 melanoma; PC-3 prostate; NCI-H460 lung; NCI-H522 lung.
Holding throughout (assay): inhibition of tumour cell growth, NCI panel, 48 h

Molecules are shown by their SMILES. Several values for one entry are separate records, joined by “and”; a condition that tells them apart may be missing. Equal values may be shown once.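 48-hour exposure; five concentrations; linearly interpolated endpoints. GI50 = concentration required for 50% inhibition of growth. TGI denotes the concentration required for complete inhibition of growth.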

For the compound `CC1=NN(c2cccc(S(=O)(=O)O)c2)C2(C1)SCC(=O)N2c1nc2ccccc2s1` (configuration not stated), the TGI in the experiment with SF-268 CNS, in the experiment with SK-MEL-2 melanoma, in the experiment with NCI-H226 lung, in the experiment on SNB-75 CNS, with CAKI-1 renal and in the experiment with SR leukemia was more than 100 µM each time. The TGI in the experiment with UACC-257 melanoma, in the experiment with PC-3 prostate, with NCI-H460 lung and in the experiment with NCI-H522 lung was more than 100 µM in each case.

Turning to `CCCCCC(=O)OC[n+]1ccc(-c2c(COC(=O)NC(C)C)c(COC(=O)NC(C)C)c3n2CCC3)cc1`, the TGI was more than 100 µM with SF-268 CNS; more than 100 µM in the experiment with SK-MEL-2 melanoma; more than 100 µM in the experiment with NCI-H226 lung; more than 100 µM in the experiment with SNB-75 CNS; more than 100 µM in the experiment on CAKI-1 renal; more than 80.9 µM in the experiment with SR leukemia. Further, the TGI with UACC-257 melanoma, in the experiment on PC-3 prostate, in the experiment on NCI-H460 lung and in the experiment with NCI-H522 lung was more than 100 µM in each case.

On to `O=[N+]([O-])c1cc(C2ON=C(c3ccccc3)N2C23CC4CC(CC(C4)C2)C3)ccc1Cl` (configuration not stated), for which the TGI with SF-268 CNS was more than 100 µM; in the experiment on SK-MEL-2 melanoma, more than 100 µM; in the experiment on NCI-H226 lung, more than 100 µM; in the experiment on SNB-75 CNS, 93.6 µM; in the experiment with CAKI-1 renal it was more than 100 µM; with SR leukemia, more than 100 µM. Besides, the TGI in the experiment with UACC-257 melanoma, with PC-3 prostate, in the experiment with NCI-H460 lung and with NCI-H522 lung was more than 100 µM each time.

Take `O=C1N(c2ccccc2)N=C2c3ccncc3C3=NN(c4ccccc4)C(=O)C123` (configuration not stated): the TGI in the experiment on SF-268 CNS, with SK-MEL-2 melanoma, in the experiment with NCI-H226 lung, in the experiment on SNB-75 CNS, with CAKI-1 renal and in the experiment with SR leukemia was more than 100 µM throughout. Also, the TGI with UACC-257 melanoma, in the experiment on PC-3 prostate, in the experiment on NCI-H460 lung and in the experiment with NCI-H522 lung was more than 100 µM each time.

For `CCN(CC)C(=O)CCNC(C)Cc1c[nH]c2ccccc12` (configuration not stated), the TGI with SF-268 CNS, in the experiment on SK-MEL-2 melanoma, in the experiment with NCI-H226 lung, in the experiment with SNB-75 CNS, in the experiment with CAKI-1 renal and with SR leukemia was more than 100 µM in each case. In addition, the TGI in the experiment with UACC-257 melanoma, with PC-3 prostate, in the experiment on NCI-H460 lung and with NCI-H522 lung was more than 100 µM throughout.

As for `CN1CCN2CCN(C)CCN(CC1)CC2`, the TGI in the experiment on SF-268 CNS, in the experiment on SK-MEL-2 melanoma, in the experiment on NCI-H226 lung, in the experiment with SNB-75 CNS, with CAKI-1 renal and in the experiment with SR leukemia was more than 100 µM each time. Moreover, the TGI with UACC-257 melanoma, with PC-3 prostate, in the experiment with NCI-H460 lung and in the experiment on NCI-H522 lung was more than 100 µM in each case.

Consider `CN(C)C=Nc1cccc2c1NSN2`, for which the TGI in the experiment on SF-268 CNS, in the experiment with SK-MEL-2 melanoma, with NCI-H226 lung, in the experiment on SNB-75 CNS, with CAKI-1 renal and with SR leukemia was more than 100 µM throughout. Further, the TGI in the experiment on UACC-257 melanoma, with PC-3 prostate, in the experiment on NCI-H460 lung and with NCI-H522 lung was more than 100 µM throughout.

Take `COC(=O)C1=C(C(=O)OC)C2CCC1CC2=O` (configuration not stated): the TGI in the experiment with SF-268 CNS, with SK-MEL-2 melanoma, in the experiment with NCI-H226 lung, with SNB-75 CNS, in the experiment on CAKI-1 renal and in the experiment with SR leukemia was more than 100 µM throughout. Besides, the TGI with UACC-257 melanoma, in the experiment on PC-3 prostate, with NCI-H460 lung and in the experiment with NCI-H522 lung was more than 100 µM each time.

For `COC(=O)/C=C/c1cc(OC)c2c(c1)C(C(=O)OC)C(c1ccc(O)c(OC)c1)O2` (configuration not stated), the TGI was more than 100 µM in the experiment with SF-268 CNS; more than 82.2 µM with SK-MEL-2 melanoma; > 100 µM and > 88.2 µM and 12.7 µM in the experiment on NCI-H226 lung; 4.36 µM and 6.67 µM and 15.2 µM in the experiment with SNB-75 CNS; 14.3 µM and 11.9 µM and > 74 µM in the experiment on CAKI-1 renal; > 25.7 µM and 3.91 µM in the experiment with SR leukemia. The TGI in the experiment with UACC-257 melanoma is > 100 µM and 63.2 µM; with PC-3 prostate, more than 100 µM; in the experiment on NCI-H460 lung, > 100 µM and > 47.9 µM and 27.8 µM; in the experiment with NCI-H522 lung, > 27.5 µM and 25.5 µM and 8.16 µM. The GI50 with SK-MEL-2 melanoma is 3.16 µM and 3.87 µM and 9.94 µM; with NCI-H226 lung, 32.9 µM and 10.3 µM and 4.53 µM; in the experiment on SNB-75 CNS it was 0.91 µM; in the experiment with CAKI-1 renal, 2.63 µM and 2.04 µM and 12.2 µM; in the experiment with UACC-257 melanoma, > 25.9 µM and 6.49 µM; with NCI-H460 lung, 13.9 µM and 7.71 µM and 5.24 µM. Also, the GI50 in the experiment on NCI-H522 lung was 3.96 µM and 3.17 µM and 1.92 µM.

Turning to `CCN(CC)CCCNc1c2cc(OC)ccc2nc2cccc([N+](=O)[O-])c12`, the TGI with SF-268 CNS is 0.593 µM; in the experiment on SK-MEL-2 melanoma, 0.32 µM; in the experiment on NCI-H226 lung, 0.51 µM; in the experiment with SNB-75 CNS, 0.354 µM; with CAKI-1 renal it was 0.673 µM; with SR leukemia it was 0.061 µM. Besides, the TGI in the experiment with UACC-257 melanoma is 0.416 µM; in the experiment with PC-3 prostate, 0.224 µM; with NCI-H460 lung, 0.0596 µM; in the experiment with NCI-H522 lung it was 0.0284 µM.
